Experimental data: US12636311B2, “Topically administered strontium-containing complexes for treating pain, pruritis and inflammation” (Galleon Labs LLC, priority 2012, dated 2026)

Assays:
brachioradial pruritus = assay: Brachioradial pruritus, itch severity reported by subject; type: in vivo, human; conditions: topical treatment, moderate to severe itch
Excerpt: A person suffered from brachioradial pruritus for over 20 years, a neuropathic condition that is believed to be caused by compression of cervical nerves that innervate the mid-back and arms. They experienced moderate to severe itching typically most intense on their arms, neck and shoulders.
During the last several years, the subject treated their condition with either strontium alone (4% or 6% elemental strontium) and with a spray formulation of strontium+ Gallic Acid+ NAC. […] Reapplication 3 or 4 times over a 10-20 minute period increased that anti-itch benefit and reduced the itching by about 50%. […] If itching remained, a second spray eliminated the remaining itching.
Subsequent blinded tests were performed in which either 4% strontium only or 6% strontium only was directly compared to 4% strontium+ Gallic Acid+ NAC. Since the subject's brachioradial pruritus typically produced itching of approximately equal intensity on both arms in a bilaterally-symmetrical pattern, strontium alone was applied to one arm and strontium+ Gallic Acid+ NAC was applied to the contralateral arm in a double-blinded manner and itch severity was reported by the subject.

[1] = tested on: TCN activation by 70% glycolic acid peel; conditions: strontium mixed with 70% glycolic acid, pH 0.6; cited from earlier work
[2] = tested on: synchronous neurotransmitter release in response to TCN activation; conditions: strontium substitutes for calcium; cited from earlier work

| Structure (SMILES) | Anti-itch benefit (in words) (brachioradial pruritus) | Suppression of burning pain and stinging [1] [%] | Reduction of amplitude of synchronous neurotransmitter release [2] |
| --- | --- | --- | --- |
| CN(C)CCOC(c1ccccc1)c1ccccc1 [diphenhydramine] | limited benefit only when the itching was mild | – | – |
| C[C@]12CCC(=O)C=C1CC[C@@H]1[C@@H]2[C@@H](O)C[C@@]2(C)[C@H]1CC[C@]2(O)C(=O)CO [hydrocortisone] | no anti-itch benefit | – | – |
| [Sr+2] [strontium] | – | ≥ 80 | more than 90% |
